{"source": "patent US11059808B2", "about": "“Substituted phenylpyrrolecarboxamides with therapeutic activity in HIV” (New York Blood Center, Inc., priority 2014, dated 2021)", "key": {"[1]": {"system": "TZM-bl cells", "assay": "Cytotoxicity in TZM-bl cells (XTT)", "type": "cell-based", "settings": "for CC50: XTT, 3 days", "method": "The cytotoxicity of test compounds in TZM-bl cells was also measured by the XTT method described previously^7. […] The soluble intracellular formazan was quantitated colorimetrically at 450 nm 4 h later. The percent of cytotoxicity and the CC50 values were calculated as above. (See Table 4)"}, "[2]": {"system": "HIV-1 pseudovirus pseudotyped with HXB2 Env", "assay": "microbe, parasite or virus in culture", "type": "cell-based", "settings": "single cycle assay, TZM-bl cells infected with HIV-1 pseudovirus pseudotyped with HXB2 Env"}, "[3]": {"settings": "Human immunodeficiency virus 1, HXB2, TZM-bl"}}}
{"compound": "Cc1nc(C(CN(C)C)NC(=O)c2ccc(-c3ccc(Cl)c(F)c3)[nH]2)sc1CO", "note": "(single isomer, unassigned) [Compound 68];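 on IC50: endpoint is IC50 for inhibition of pseudovirus infection of TZM-bl cells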", "values": [{"measurement": "CC50", "setting": "[1]", "result": "~29", "unit": "µM"}, {"measurement": "IC50", "setting": "[2]", "result": "7200 ± 3000", "unit": "nM"}]}
{"compound": "Cc1nc(C(CN)NC(=O)c2ccc(-c3ccc(F)c(F)c3)[nH]2)sc1CO", "note": "(single isomer, unassigned) [Compound 122]", "values": [{"measurement": "CC50", "setting": "[1]", "result": "> 51", "unit": "µM"}, {"measurement": "percentage in brackets after CC50 >51", "setting": "[1]; printed \"(30%)\" without explanation, presumably toxicity at 51 μM", "result": 30, "unit": "%"}]}
{"compound": "Cc1cc(-c2ccc(Cl)cc2)[nH]c1C(=O)NC(CN)c1nc(C)c(CO)s1", "note": "(single isomer, unassigned) [Compound 70]", "values": [{"measurement": "CC50", "setting": "[1]", "result": "26.4 ± 0.7", "unit": "µM"}, {"measurement": "IC50", "setting": "[2]", "result": "1100 ± 300", "unit": "nM"}]}
{"compound": "Cc1ccc(-c2ccc(C(=O)NC(CCN(C)C)c3nc(C)c(CO)s3)[nH]2)cc1F", "note": "(single isomer, unassigned) [Compound 73]", "values": [{"measurement": "CC50", "setting": "[1]", "result": "37.1 ± 5.7", "unit": "µM"}, {"measurement": "IC50", "setting": "[2]", "result": "6600 ± 200", "unit": "nM"}]}
{"compound": "Cc1nc(C(CCN(C)C)NC(=O)c2ccc(-c3ccc(Cl)c(F)c3)[nH]2)sc1CO", "note": "(single isomer, unassigned) [Compound 75]", "values": [{"measurement": "CC50", "setting": "[1]", "result": "21.3 ± 0.6", "unit": "µM"}, {"measurement": "IC50", "setting": "[2]", "result": "1500 ± 300", "unit": "nM"}]}
{"compound": "Cc1cc(C(=O)NC(CN)c2nc(C)c(CO)s2)[nH]c1-c1ccc(Cl)cc1", "note": "(single isomer, unassigned) [Compound 98]", "values": [{"measurement": "CC50", "setting": "[1]", "result": "22.2 ± 0.3", "unit": "µM"}]}
{"compound": "CNCC(NC(=O)c1ccc(-c2ccc(Cl)c(F)c2)[nH]1)c1nc(C)c(CO)s1", "note": "(single isomer, unassigned) [Compound 57]", "values": [{"measurement": "CC50", "setting": "[1]", "result": "~20", "unit": "µM"}, {"measurement": "IC50", "setting": "[2]", "result": "~600", "unit": "nM"}]}
{"compound": "CNCC(NC(=O)c1ccc(-c2ccc(Cl)c(F)c2)[nH]1)c1ncc(CO)s1", "note": "(single isomer, unassigned) [Compound 116]", "values": [{"measurement": "CC50", "setting": "[1]", "result": "17.4 ± 0.4", "unit": "µM"}, {"measurement": "IC50", "setting": "[2]", "result": "1400 ± 50", "unit": "nM"}]}
{"compound": "Cc1nc(C(CN)NC(=O)c2ccc(-c3ccc(Cl)cc3)n2C)sc1CO", "note": "(single isomer, unassigned) [Compound 91]", "values": [{"measurement": "CC50", "setting": "[1]", "result": "35.8 ± 0.3", "unit": "µM"}, {"measurement": "IC50", "setting": "[2]; [3]", "result": "26000 ± 1400", "unit": "nM"}]}
{"compound": "Cc1nc(C(CN)NC(=O)c2ccc(-c3ccc(Cl)cc3)[nH]2)sc1CN", "note": "(single isomer, unassigned) [Compound 108]", "values": [{"measurement": "CC50", "setting": "[1]", "result": "14.6 ± 0.2", "unit": "µM"}, {"measurement": "IC50", "setting": "[2]; [3]", "result": "12100 ± 500", "unit": "nM"}]}
{"compound": "CNCC(NC(=O)c1ccc(-c2cc(F)c(Cl)c(F)c2)[nH]1)c1ncc(CO)s1", "note": "(single isomer, unassigned) [Compound 128]", "values": [{"measurement": "CC50", "setting": "[1]", "result": "10.4 ± 0.8", "unit": "µM"}, {"measurement": "IC50", "setting": "[2]", "result": "360 ± 40", "unit": "nM"}]}
{"compound": "CNCC(NC(=O)c1ccc(-c2ccc(Cl)c(F)c2)[nH]1)c1ncc(CO)s1", "note": "(single isomer, unassigned) [Compound 115]", "values": [{"measurement": "CC50", "setting": "[1]", "result": "17.3 ± 0.5", "unit": "µM"}, {"measurement": "IC50", "setting": "[2]; [3]", "result": "950 ± 30", "unit": "nM"}]}
{"compound": "CNCC(NC(=O)c1ccc(-c2cc(F)c(Cl)c(F)c2)[nH]1)c1ncc(CO)s1", "note": "(single isomer, unassigned) [Compound 127]", "values": [{"measurement": "CC50", "setting": "[1]", "result": "13.9 ± 0.7", "unit": "µM"}, {"measurement": "IC50", "setting": "[2]; [3]", "result": "420 ± 200", "unit": "nM"}]}
{"compound": "Cc1ccc(-c2ccc(C(=O)NC(c3ncc(CO)s3)C(C)(C)N)[nH]2)cc1F", "note": "(single isomer, unassigned) [Compound 126]", "values": [{"measurement": "CC50", "setting": "[1]", "result": "18.1 ± 0.7", "unit": "µM"}, {"measurement": "IC50", "setting": "[2]", "result": "540 ± 10", "unit": "nM"}]}
{"compound": "CNCC(NC(=O)c1ccc(-c2ccc(Cl)cc2)[nH]1)c1nc(C)c(CO)s1", "note": "(single isomer, unassigned) [Compound 59]", "values": [{"measurement": "CC50", "setting": "[1]", "result": "~22", "unit": "µM"}]}
{"compound": "Cc1ccc(-c2ccc(C(=O)NC(c3nc(C)c(CO)[nH]3)C3CCCCN3)[nH]2)cc1F", "note": "(single isomer, unassigned) [Compound 38]", "values": [{"measurement": "CC50", "setting": "[1]", "result": "34 ± 0.2", "unit": "µM"}, {"measurement": "IC50", "setting": "[2]", "result": "17000 ± 200", "unit": "nM"}]}
{"compound": "Cc1ccc(-c2ccc(C(=O)NC(CNC(=N)N)c3nc(C)c(CO)s3)[nH]2)cc1F", "note": "(single isomer, unassigned) [Compound 50]", "values": [{"measurement": "CC50", "setting": "[1]", "result": "> 37", "unit": "µM"}, {"measurement": "IC50", "setting": "[2]", "result": "> 20000", "unit": "nM"}]}
{"compound": "Cc1nc(C(NC(=O)c2ccc(-c3ccc(Cl)cc3)[nH]2)C2CCCCN2)[nH]c1CO", "note": "(single isomer, unassigned) [Compound 34]", "values": [{"measurement": "CC50", "setting": "[1]", "result": "34 ± 0.1", "unit": "µM"}, {"measurement": "IC50", "setting": "[2]", "result": "16000 ± 100", "unit": "nM"}]}
{"compound": "CC(=O)NCC(NC(=O)c1ccc(-c2ccc(Cl)c(F)c2)[nH]1)c1nc(C)c(CO)s1", "note": "(single isomer, unassigned) [Compound 60]", "values": [{"measurement": "CC50", "setting": "[1]", "result": "> 44", "unit": "µM"}]}
{"compound": "Cc1nc(C(CN(C)C)NC(=O)c2ccc(-c3ccc(Cl)cc3)[nH]2)sc1CO", "note": "(single isomer, unassigned) [Compound 63]", "values": [{"measurement": "CC50", "setting": "[1]", "result": "~30", "unit": "µM"}]}
{"compound": "Cc1nc(C(CN)NC(=O)c2ccc(-c3ccc(Cl)c(F)c3)[nH]2)sc1CO", "note": "(single isomer, unassigned) [Compound 42]", "values": [{"measurement": "CC50", "setting": "[1]", "result": "≥ 33", "unit": "µM"}]}
{"compound": "CNCCC(NC(=O)c1ccc(-c2ccc(C)c(F)c2)[nH]1)c1nc(C)c(CO)s1", "note": "(single isomer, unassigned) [Compound 79]", "values": [{"measurement": "CC50", "setting": "[1]", "result": "38.9 ± 2.1", "unit": "µM"}, {"measurement": "IC50", "setting": "[2]", "result": "1600 ± 400", "unit": "nM"}]}
{"compound": "Cc1ccc(-c2ccc(C(=O)NC(CN)c3nc(C)c(CO)s3)[nH]2)cc1F", "note": "(single isomer, unassigned) [Compound 44]", "values": [{"measurement": "CC50", "setting": "[1]", "result": "≥ 34", "unit": "µM"}, {"measurement": "IC50", "setting": "[2]", "result": "1100 ± 100", "unit": "nM"}]}
{"compound": "CNCC(NC(=O)c1ccc(-c2ccc(C)c(F)c2)[nH]1)c1ncc(CO)s1", "note": "(single isomer, unassigned) [Compound 117]", "values": [{"measurement": "CC50", "setting": "[1]", "result": "27.4 ± 0.8", "unit": "µM"}, {"measurement": "IC50", "setting": "[2]; [3]", "result": "1000 ± 200", "unit": "nM"}]}
{"compound": "CNCC(NC(=O)c1ccc(-c2ccc(C)c(F)c2)[nH]1)c1nc(C)c(CO)s1", "note": "(single isomer, unassigned) [Compound 55]", "values": [{"measurement": "CC50", "setting": "[1]", "result": "~40", "unit": "µM"}]}
{"compound": "Cc1nc(C(CN)NC(=O)c2cnc(-c3ccc(Cl)cc3)[nH]2)sc1CO", "note": "(single isomer, unassigned) [Compound 94]", "values": [{"measurement": "CC50", "setting": "[1]", "result": "> 51", "unit": "µM"}]}
